Data from ChEMBL document CHEMBL1201861, “Genomics of Drug Sensitity in Cancer screening data, Wellcome Trust Sanger Institute”.

How the values were obtained:
Caov-3 cell line = experiment: cells; type: functional, cell-based; details: Homo sapiens;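 further: cell growth inhibition read out by a viability assay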
Description: SANGER: Inhibition of human Caov-3 cell growth in a cell viability assay.

DG-75 = experiment: cells; type: functional, cell-based; details: Homo sapiens;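 further: growth inhibition of DG-75 cells, read out with a cell viability assay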
Description: SANGER: Inhibition of human DG-75 cell growth in a cell viability assay.

DMS-53 = experiment: cells; type: functional, cell-based, Homo sapiens; details: Homo sapiens, DMS-53;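 further: cell viability assay measuring growth inhibition of human DMS-53 cells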
Description: SANGER: Inhibition of human DMS-53 cell growth in a cell viability assay.

DV-90 = experiment: cells; type: functional, cell-based; details: Homo sapiens;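 further: Read-out is a viability assay, with IC50 reflecting the drop in DV-90 cell growth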
Description: SANGER: Inhibition of human DV-90 cell growth in a cell viability assay.

Daudi = experiment: cells; type: functional, cell-based; details: Homo sapiens;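 further: growth inhibition of Daudi cells, read out by a viability assay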
Description: SANGER: Inhibition of human Daudi cell growth in a cell viability assay.

ECC4 = experiment: cells; type: functional, cell-based; details: Homo sapiens;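 further: growth inhibition of ECC4 cells, read out with a cell viability assay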
Description: SANGER: Inhibition of human ECC4 cell growth in a cell viability assay.

EHEB = experiment: cells; type: functional, cell-based; details: Homo sapiens;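 further: growth inhibition of human EHEB cells, read out with a cell viability assay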
Description: SANGER: Inhibition of human EHEB cell growth in a cell viability assay.

EVSA-T = experiment: cells; type: functional, cell-based, Homo sapiens; details: Homo sapiens, EVSA-T;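 further: growth inhibition of EVSA-T cells, read out with a cell viability assay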
Description: SANGER: Inhibition of human EVSA-T cell growth in a cell viability assay.

EW-7 = experiment: SANGER: Inhibition of human EW-7 cell growth in a cell viability assay.; type: functional, cell-based; details: Homo sapiens, EW-7
G-361 = experiment: cells; type: functional, cell-based, Homo sapiens; details: Homo sapiens, G-361
GDM-1 = experiment: cells; type: functional, cell-based; details: Homo sapiens;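 further: cell viability readout used to measure growth inhibition of human GDM-1 cells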
Description: SANGER: Inhibition of human GDM-1 cell growth in a cell viability assay.

HCC1143 = experiment: cells; type: functional, cell-based; details: Homo sapiens;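 further: growth inhibition of human HCC1143 cells, read out with a cell viability assay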
Description: SANGER: Inhibition of human HCC1143 cell growth in a cell viability assay.

HCT-15 = experiment: cells; type: functional, cell-based, Homo sapiens; details: Homo sapiens, HCT-15;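 further: cell viability readout, IC50 reflecting suppression of HCT-15 cell growth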
Description: SANGER: Inhibition of human HCT-15 cell growth in a cell viability assay.

HT55 = experiment: cells; type: functional, cell-based, Homo sapiens; details: Homo sapiens, HT55;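 further: cell viability readout measuring growth inhibition of human HT55 cells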
Description: SANGER: Inhibition of human HT55 cell growth in a cell viability assay.

IPC-298 = experiment: SANGER: Inhibition of human IPC-298 cell growth in a cell viability assay.; type: functional, cell-based
Kasumi 1 = experiment: cells; type: functional, cell-based; details: Homo sapiens;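 further: growth inhibition of human Kasumi-1 cells, read out by a cell viability assay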
Description: SANGER: Inhibition of human KASUMI-1 cell growth in a cell viability assay.

KMS-12-PE = experiment: cells; type: functional, cell-based; details: Homo sapiens;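 further: growth inhibition of human KMS-12-PE cells, measured with a cell viability assay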
Description: SANGER: Inhibition of human KMS-12-PE cell growth in a cell viability assay.

LC4-1 = experiment: cells; type: functional, cell-based; details: Homo sapiens;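 further: growth inhibition of LC4-1 cells, read out with a cell viability assay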
Description: SANGER: Inhibition of human LC4-1 cell growth in a cell viability assay.

LP-1 = experiment: cells; type: functional, cell-based; details: Homo sapiens;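 further: growth inhibition of human LP-1 cells, with the read-out taken from a cell viability assay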
Description: SANGER: Inhibition of human LP-1 cell growth in a cell viability assay.

MC-CAR = experiment: cells; type: functional, cell-based; details: Homo sapiens;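 further: growth inhibition of the human MC-CAR cell line, read out by a cell viability assay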
Description: SANGER: Inhibition of human MC-CAR cell growth in a cell viability assay.

MDA-MB-134-VI = experiment: cells; type: functional, cell-based; details: Homo sapiens
Description: SANGER: Inhibition of human MDA-MB-134-VI cell growth in a cell viability assay.

MEL-JUSO = experiment: cells; type: functional, cell-based, Homo sapiens; details: Homo sapiens, MEL-JUSO;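 further: growth inhibition of human MEL-JUSO cells, read out with a cell viability assay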
Description: SANGER: Inhibition of human MEL-JUSO cell growth in a cell viability assay.

MES-SA = experiment: cells; type: functional, cell-based, Homo sapiens; details: Homo sapiens, MES-SA;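 further: growth inhibition of human MES-SA cells, read out with a cell viability assay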
Description: SANGER: Inhibition of human MES-SA cell growth in a cell viability assay.

MFE-296 = experiment: SANGER: Inhibition of human MFE-296 cell growth in a cell viability assay.; type: functional, cell-based
MHH-CALL-2 = experiment: cells; type: functional, cell-based; details: Homo sapiens;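 further: growth inhibition of the cell line, read out in a cell viability assay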
Description: SANGER: Inhibition of human MHH-CALL-2 cell growth in a cell viability assay.

NCI-H1618 = experiment: cells; type: functional, cell-based; details: Homo sapiens;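 further: growth inhibition of human NCI-H1618 cells, measured by a cell viability assay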
Description: SANGER: Inhibition of human NCI-H1618 cell growth in a cell viability assay.

NCI-H1703 = experiment: cells; type: functional, cell-based, Homo sapiens; details: Homo sapiens, NCI-H1703;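 further: growth inhibition of NCI-H1703 cells, read out via a cell viability assay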
Description: SANGER: Inhibition of human NCI-H1703 cell growth in a cell viability assay.

NCI-H1734 = experiment: cells; type: functional, cell-based; details: Homo sapiens;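 further: growth inhibition of human NCI-H1734 cells, read out with a cell viability assay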
Description: SANGER: Inhibition of human NCI-H1734 cell growth in a cell viability assay.

NCI-H2081 = experiment: cells; type: functional, cell-based; details: Homo sapiens;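 further: growth inhibition of human NCI-H2081 cells, read out with a cell viability assay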
Description: SANGER: Inhibition of human NCI-H2081 cell growth in a cell viability assay.

NCI-H460 = experiment: cells; type: functional, cell-based, Homo sapiens; details: Homo sapiens, NCI-H460;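 further: cell viability assay scoring growth inhibition of human NCI-H460 cells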
Description: SANGER: Inhibition of human NCI-H460 cell growth in a cell viability assay.

NCI-H630 = experiment: cells; type: functional, cell-based, Homo sapiens; details: Homo sapiens, NCI-H630;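 further: growth inhibition of NCI-H630 cells, read out with a cell viability assay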
Description: SANGER: Inhibition of human NCI-H630 cell growth in a cell viability assay.

NCI-H838 = experiment: cells; type: functional, cell-based; details: Homo sapiens;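 further: growth inhibition of human NCI-H838 cells, read out by a cell viability assay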
Description: SANGER: Inhibition of human NCI-H838 cell growth in a cell viability assay.

OPM-2 = experiment: cells; type: functional, cell-based; details: Homo sapiens;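 further: growth of OPM-2 cells measured with a viability assay, IC50 for suppression of proliferation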
Description: SANGER: Inhibition of human OPM-2 cell growth in a cell viability assay.

PLC-PRF-5 = experiment: cells; type: functional, cell-based; details: Homo sapiens;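 further: growth inhibition of human PLC-PRF-5 cells, read out with a viability assay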
Description: SANGER: Inhibition of human PLC-PRF-5 cell growth in a cell viability assay.

RL = experiment: cells; type: functional, cell-based; details: Homo sapiens
Description: SANGER: Inhibition of human RL cell growth in a cell viability assay.

RT-4 = experiment: SANGER: Inhibition of human RT4 cell growth in a cell viability assay.; type: functional, cell-based; details: Homo sapiens, RT-4
Raji = experiment: cells; type: functional, cell-based; details: Homo sapiens;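 further: cell viability assay measuring inhibition of Raji cell growth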
Description: SANGER: Inhibition of human Raji cell growth in a cell viability assay.

SK-CO-1 = experiment: cells; type: functional, cell-based; details: Homo sapiens;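 further: growth inhibition of SK-CO-1 cells, determined by a viability readout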
Description: SANGER: Inhibition of human SK-CO-1 cell growth in a cell viability assay.

SNG-M = experiment: cells; type: functional, cell-based; details: Homo sapiens
Description: SANGER: Inhibition of human SNG-M cell growth in a cell viability assay.

SNU-475 = experiment: cells; type: functional, cell-based; details: Homo sapiens
Description: SANGER: Inhibition of human SNU-475 cell growth in a cell viability assay.

ST486 = experiment: SANGER: Inhibition of human ST486 cell growth in a cell viability assay.; type: functional, cell-based
BL-70 = experiment: SANGER: Inhibition of human BL-70 cell growth in a cell viability assay.; type: functional, cell-based
BOKU = experiment: cells; type: functional, cell-based; details: Homo sapiens;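 further: growth inhibition of the human BOKU cell line, read out by a cell viability assay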
Description: SANGER: Inhibition of human BOKU cell growth in a cell viability assay.

TT = experiment: cells; type: functional, cell-based; details: Homo sapiens
Description: SANGER: Inhibition of human TT cell growth in a cell viability assay.

TUR = experiment: cells; type: functional, cell-based; details: Homo sapiens;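 further: growth inhibition of human TUR cells, read out with a cell viability assay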
Description: SANGER: Inhibition of human TUR cell growth in a cell viability assay.

YT = experiment: cells; type: functional, cell-based; details: Homo sapiens
Description: SANGER: Inhibition of human YT cell growth in a cell viability assay.

CCF-STTG1 = experiment: cells; type: functional, cell-based; details: Homo sapiens;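 further: growth inhibition of human CCF-STTG1 cells, determined with a cell viability read-out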
Description: SANGER: Inhibition of human CCF-STTG1 cell growth in a cell viability assay.

In the case of COc1cc([C@@H]2c3cc4c(cc3[C@@H](O[C@@H]3O[C@@H]5CO[C@@H](C)O[C@H]5[C@H](O)[C@H]3O)[C@H]3COC(=O)[C@H]23)OCO4)cc(OC)c1O [ETOPOSIDE], the IC50 (Caov-3 cell line) is reported as > 16 µM, the IC50 (DG-75) is reported as > 16 µM and the IC50 (DMS-53) is reported as > 16 µM. For the same molecule, the IC50 (DV-90) was > 16 µM, the IC50 (Daudi) was 5360 nM and the IC50 (ECC4) was > 16 µM. The IC50 (EHEB) was > 16 µM, the IC50 (EVSA-T) was > 16 µM and the IC50 (EW-7) was 125 nM. For the same molecule, the IC50 (G-361) was 834 nM, the IC50 (GDM-1) was 3400 nM and the IC50 (HCC1143) was > 16 µM. The IC50 (HCT-15) was 7870 nM, the IC50 (HT55) was > 16 µM and the IC50 (IPC-298) was 4.33 µM. The IC50 (Kasumi 1) was 1320 nM, the IC50 (KMS-12-PE) was 9.91 µM and the IC50 (LC4-1) was 3230 nM. The IC50 (LP-1) was > 16 µM, the IC50 (MC-CAR) was 580 nM and the IC50 (MDA-MB-134-VI) was > 16 µM. For the same molecule, the IC50 (MEL-JUSO) was 657 nM, the IC50 (MES-SA) was 458 nM and the IC50 (MFE-296) was 763 nM. The IC50 (MHH-CALL-2) was > 16 µM, the IC50 (NCI-H1618) was > 16 µM and the IC50 (NCI-H1703) was 1300 nM. The IC50 (NCI-H1734) was 1510 nM, the IC50 (NCI-H2081) was 4.92 µM and the IC50 (NCI-H460) was 236 nM. For the same molecule, the IC50 (NCI-H630) was 9.12 µM, the IC50 (NCI-H838) was > 16 µM and the IC50 (OPM-2) was > 16 µM. For the same molecule, the IC50 (PLC-PRF-5) was > 16 µM, the IC50 (RL) was > 16 µM and the IC50 (RT-4) was > 16 µM. The IC50 (Raji) was 8.32 µM, the IC50 (SK-CO-1) was 1630 nM and the IC50 (SNG-M) was 1160 nM. The IC50 (SNU-475) was > 16 µM, the IC50 (ST486) was 2250 nM and the IC50 (BL-70) was 7070 nM. The IC50 (BOKU) was 1630 nM, the IC50 (TT) was > 16 µM and the IC50 (TUR) was 722 nM. For the same molecule, the IC50 (YT) was > 16000 nM and the IC50 (CCF-STTG1) was 6.91 µM.

In the case of CN(c1ncccc1CNc1nc(Nc2ccc3c(c2)CC(=O)N3)ncc1C(F)(F)F)S(C)(=O)=O [PF-00562271], the IC50 (Caov-3 cell line) is reported as > 2.56 µM, the IC50 (DG-75) is reported as > 2.56 µM and the IC50 (DMS-53) is reported as > 2.56 µM. For the same molecule, the IC50 (DV-90) was > 2.56 µM, the IC50 (Daudi) was > 2560 nM and the IC50 (ECC4) was > 2.56 µM. The IC50 (EHEB) was > 2.56 µM, the IC50 (EVSA-T) was > 2.56 µM and the IC50 (EW-7) was > 2560 nM. For the same molecule, the IC50 (G-361) was > 2560 nM, the IC50 (GDM-1) was > 2560 nM and the IC50 (HCC1143) was > 2.56 µM. For the same molecule, the IC50 (HCT-15) was > 2560 nM, the IC50 (HT55) was > 2.56 µM and the IC50 (IPC-298) was > 2.56 µM. For the same molecule, the IC50 (Kasumi 1) was 2330 nM, the IC50 (KMS-12-PE) was > 2.56 µM and the IC50 (LC4-1) was > 2560 nM. For the same molecule, the IC50 (LP-1) was > 2.56 µM, the IC50 (MC-CAR) was > 2560 nM and the IC50 (MDA-MB-134-VI) was > 2.56 µM. It also gave an IC50 (MEL-JUSO) of 1730 nM, an IC50 (MES-SA) of 1310 nM and an IC50 (MFE-296) of 2480 nM. For the same molecule, the IC50 (MHH-CALL-2) was > 2.56 µM, the IC50 (NCI-H1618) was > 2.56 µM and the IC50 (NCI-H1703) was > 2560 nM. For the same molecule, the IC50 (NCI-H1734) was > 2560 nM, the IC50 (NCI-H2081) was > 2.56 µM and the IC50 (NCI-H460) was 2050 nM. The IC50 (NCI-H630) was > 2.56 µM, the IC50 (NCI-H838) was > 2.56 µM and the IC50 (OPM-2) was > 2.56 µM. For the same molecule, the IC50 (PLC-PRF-5) was > 2.56 µM, the IC50 (RL) was > 2.56 µM and the IC50 (RT-4) was > 2.56 µM. For the same molecule, the IC50 (Raji) was > 2.56 µM, the IC50 (SK-CO-1) was > 2560 nM and the IC50 (SNG-M) was > 2560 nM. The IC50 (SNU-475) was > 2.56 µM, the IC50 (ST486) was 1530 nM and the IC50 (BL-70) was > 2560 nM. The IC50 (BOKU) was > 2560 nM, the IC50 (TT) was > 2.56 µM and the IC50 (TUR) was > 2560 nM. For the same molecule, the IC50 (YT) was > 2560 nM and the IC50 (CCF-STTG1) was > 2.56 µM.

With Cn1cncc1[C@@](N)(c1ccc(Cl)cc1)c1ccc2c(c1)c(-c1cccc(Cl)c1)cc(=O)n2C [TIPIFARNIB] the IC50 (Caov-3 cell line) was > 16 µM, the IC50 (DG-75) was > 16 µM and the IC50 (DMS-53) was > 16 µM. For the same molecule, the IC50 (DV-90) was > 16 µM, the IC50 (Daudi) was 2500 nM and the IC50 (ECC4) was > 16 µM. The IC50 (EHEB) was > 16 µM, the IC50 (EVSA-T) was > 16 µM and the IC50 (EW-7) was > 16000 nM. It also gave an IC50 (G-361) of 1140 nM, an IC50 (GDM-1) of 352 nM and an IC50 (HCC1143) of 13.3 µM. The IC50 (HCT-15) was 327 nM, the IC50 (HT55) was > 16 µM and the IC50 (IPC-298) was 5.82 µM. The IC50 (KMS-12-PE) was > 16 µM, the IC50 (LC4-1) was 2550 nM and the IC50 (LP-1) was > 16 µM. The IC50 (MC-CAR) was 9070 nM, the IC50 (MDA-MB-134-VI) was > 16 µM and the IC50 (MEL-JUSO) was 23.4 nM. It also gave an IC50 (MES-SA) of 4610 nM, an IC50 (MFE-296) of 1450 nM and an IC50 (MHH-CALL-2) of 10.6 µM. The IC50 (NCI-H1618) was > 16 µM, the IC50 (NCI-H1703) was > 16000 nM and the IC50 (NCI-H1734) was 14500 nM. The IC50 (NCI-H2081) was > 16 µM, the IC50 (NCI-H460) was 4930 nM and the IC50 (NCI-H838) was > 16 µM. For the same molecule, the IC50 (OPM-2) was > 16 µM, the IC50 (PLC-PRF-5) was > 16 µM and the IC50 (RL) was > 16 µM. The IC50 (RT-4) was 10.9 µM, the IC50 (Raji) was 12.5 µM and the IC50 (SK-CO-1) was 13000 nM. The IC50 (SNG-M) was 204 nM, the IC50 (SNU-475) was > 16 µM and the IC50 (ST486) was 1260 nM. For the same molecule, the IC50 (BL-70) was 1950 nM, the IC50 (BOKU) was > 16000 nM and the IC50 (TT) was > 16 µM. The IC50 (TUR) was 871 nM, the IC50 (YT) was 1650 nM and the IC50 (CCF-STTG1) was > 16 µM.
